# Literature values as cited in patent US9974767B2, “Statins in the treatment of muscular dystrophies and myopathies” (University of Washington, priority 2014, dated 2018).
# Details: food intake; cited from earlier work
row,SMILES,absorption when consumed with food
1,COCc1c(C(C)C)nc(C(C)C)c(/C=C/[C@@H](O)C[C@@H](O)CC(=O)O)c1-c1ccc(F)cc1 [cerivastatin],not affected
2,CC(C)n1c(/C=C/C(O)CC(O)CC(=O)O)c(-c2ccc(F)cc2)c2ccccc21 (centres unmarked) [fluvastatin],reduced absorption
3,CC[C@H](C)C(=O)O[C@H]1C[C@@H](C)C=C2C=C[C@H](C)[C@H](CC[C@@H]3C[C@@H](O)CC(=O)O3)[C@H]21 [lovastatin],more efficiently absorbed
4,CC[C@H](C)C(=O)O[C@H]1C[C@H](O)C=C2C=C[C@H](C)[C@H](CC[C@@H](O)C[C@@H](O)CC(=O)O)[C@H]21 [pravastatin],reduced absorption
5,CC(C)c1nc(N(C)S(C)(=O)=O)nc(-c2ccc(F)cc2)c1/C=C/[C@@H](O)C[C@@H](O)CC(=O)O [rosuvastatin],not affected
